Experimental data published in patent US20050026836A1, “Composition for the treatment of damaged tissue” (priority 1999, published 2005).

How the values were obtained:
[1] = target: T1, catalytic domain of human MMP-9 (Homo sapiens, UniProt P14780); assay: MMP-9 fluorogenic inhibition assay; type: biochemical; conditions: read-out: Calculated Ki(nM) MMP-9
T1 sequence (P14780 with tags, fused parts or gaps DEL216-390 limits assumed): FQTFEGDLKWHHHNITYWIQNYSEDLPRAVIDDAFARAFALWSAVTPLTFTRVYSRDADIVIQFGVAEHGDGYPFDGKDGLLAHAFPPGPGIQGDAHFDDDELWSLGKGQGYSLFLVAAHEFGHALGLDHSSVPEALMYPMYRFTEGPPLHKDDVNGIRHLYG
Experimental: (§1) All enzymes were pre-activated at 37° C. with aminophenylmercuric acetate (APMA) or trypsin before being made up to the final concentrations used in the assay. MMP-1 (30 nM) was activated with 0.93 mM APMA for 20 minutes, MMP-2 (30 nM) was activated with 1.32 mM APMA for 1 hour, MMP-3 (1010 nM) was activated with 1.81 mM APMA for 3 hours or heat activated at 55° C. for three hours, MMP-9 (100 nM) was activated with 2 mM APMA for 2 hours, human MMP-13 (100 nM) was activated with 2 mM APMA for 2 hours, and MMP-14 (900 nM) was activated with 0.9 ng/ml trypsin for 25 minutes, followed by the addition of 4.5 ng/ml trypsin inhibitor.
(§2) For MMP-1, the assay buffer used was 50 mM Tris, 200 mM NaCl, 5 mM CaCl2, 20 μM ZnCl2, 0.05% (w/v) Brij 35, pH 7.5. […] For MMP-13, the assay buffer used was 50 mM Tris, pH 7.5, 200 mM NaCl, 5 mM CaCl2, […] and 0.02% (w/v) Brij 35. For MMP-14, the assay buffer used was 50 mM Tris, 100 mM NaCl, 10 mM CaCl2, 0.25% (w/v) Brij 35, pH 7.5.
MMP-2, MMP-3 and MMP-9 inhibition was assayed by incubating activated catalytic domain of human MMP-2, MMP-3 and MMP-9 at 1 nM in assay buffer with 5 μM substrate Mca-Arg-Pro-Lys-Pro-Tyr-Ala-Nva-Trp-Met-Lys(Dnp)-NH2, and six different concentrations of inhibitor. The incubation was performed at 37° C. for 60 minutes.
(§3) The final assay concentrations of inhibitors used in the MMP-1 assays to determine Ki were 50, 40, 30, 20, 10 and 5 μM. For MMP-2, the final assay concentrations of inhibitors used were 1000, 800, 600, 400, 200 and 100 nM. For MMP-3, the final assay concentrations of inhibitors used were 5, 4, 3, 2, 1 and 0.5 nM. For MMP-9 and MMP-14, the final assay concentrations of inhibitors used were 5, 4, 3, 2, 1 and 0.5 μM.
(§4) All assays were carried out in a black 96-well plate with a final volume of 100 μl in each well. […] For MMP-2, MMP-3, MMP-9 and MMP-14, fluorescence was read every 2 minutes at […] and 393 nm γem for 1 hour using a Fluorostar fluorimeter (BMG) with BIOLISE software. For MMP-1 assays, the filters used were 355 nm γex and 440 nm γem; fluorescence was read every 2 minutes for 1 hour. […]

[2] = target: T2, catalytic domain human MMP-14 (Homo sapiens, UniProt P50281); assay: MMP-14 fluorogenic inhibition assay; type: biochemical; conditions: read-out: Calculated Ki(nM) MMP-14
T2 construct: made in house
Experimental: as §1, §2
MMP-14 inhibition was assayed by incubating activated catalytic domain human MMP-14 at 1 nM in assay buffer with 10 μM Mca-Pro-Leu-Gly-Leu-Dpa-Ala-Arg-NH2 and six concentrations of inhibitor. The incubation was performed at 37° C. for 60 minutes.
as §3
as §4, with “well. Inhibitors were dissolved in dimethylsulphoxide (DMSO) to 1 mM.” for “well.”

With `COC[C@@H](NC(=O)[C@@H](NC(=O)[C@H](CCCc1ccc(-c2cccc(OC)c2)c(C)c1)CC(=O)O)C(C)(C)C)c1ccccc1` [compound 9454, (3R)-3-({[(1S)-2,2-Dimethyl-1-({[(1S)-2-methoxy-1-phenylethyl]amino}carbonyl)propyl]amino}carbonyl)-6-(3′-methoxy-2-methylbiphen-4-yl)hexanoic acid] the Ki [1] was 52400 nM and the Ki [2] was 35500 nM.
